Experimental data from patent US20110236349A1, “Use of Epidermal Growth Factor Inhibitors in the Treatment of Viral Infection” (priority 2008, published 2011).

How the values were obtained:
Influenza A/H1N1/PR8 = assay type: cell-based; settings: 10 μM; 24 h; MOI~1; eight fields at 20×; n=4; Influenza alone 316±19 cells; p<0.0001
Rhinovirus 16 [1] = test: Rhinovirus 16 infection of NCI-H292 airway epithelial cells, quantified by viral plaque assay on HeLa cells; assay type: cell-based, Rhinovirus 16 (major group) in human NCI-H292 cells; settings: AG 1478 10 μM; RV16 MOI 10; NCI-H292 cell lysates; n=2
Procedure: The effect of an EGF-R inhibitor on rhinovirus infectivity was assayed. First, human airway epithelial (NCI-H292 American Type Culture Collection Catalog No. CRL-1848) cells were treated with Rhinovirus 16 (major group Rhinovirus (RV) at multiplicity of infection (MOI) 10) or RV16 plus a selective EGFR tyrosine kinase inhibitor (AG 1478) at 10 μM. Cell lysates from these NCI-H292 cell cultures were collected at […]. To quantitate Rhinovirus infection in airway epithelial cells, cell lysates were analyzed by viral plaque assay, a technique that is commonly utilized to measure viral infection. Next, serial dilutions of NCI-H292 cell lysates were placed on HeLa cell cultures for a standard plaque assay. Cell cultures were covered with an agarose overlay. Cultures were incubated for three days. After three days, cell cultures were stained with crystal violet and the number of plaques was counted. […] FIG. 1A. […]
The effect of an antibody specific for EGF-R on Rhinovirus 16 (RV16) infection was also assessed. […]
FIGS. 1A and 1B. Viral quantification of Rhinovirus infection by plaque assay. […] Cell lysates were collected after 24 h and Rhinovirus infection was quantified by plaque assay [(A) n=2±SEM; (B) n=1].

Rhinovirus 16 [2] = test: Rhinovirus 16 infection of HeLa cells measured by flow cytometry; assay type: cell-based, Rhinovirus 16 (major group) in HeLa cells; settings: RV16 MOI 10, 6 h, RV alone 62%, control 1%
Procedure: HeLa is an epithelial cell line that is routinely used to evaluate Rhinovirus infection. HeLa; American Type Culture Collections (ATCC) No. CCL-2. Here, HeLa cell cultures were treated with serum-free medium (Control), or with serum-free medium containing Rhinovirus 16 (major group RV at multiplicity of infection (MOI) 10) with and without a selective EGFR tyrosine kinase inhibitor (AG 1478). After 6 h, cell cultures were collected and stained with a monoclonal antibody that selectively binds to Rhinovirus. Cells were processed for flow cytometry and Rhinovirus infection in HeLa cells was measured. The data, shown in FIG. 2, are expressed as percent infected cells. Control (no RV): 1%; RV: 62%; RV+AG1478 (5 μM): 13%; and RV+AG1478 (10 μM): 9%. […] No effect with a platelet derived growth factor (PDGF) inhibitor (another tyrosine kinase inhibitor) was observed.

[3] = system: respiratory syncytial virus (RSV); test: RSV infection of epithelial HeLa cell cultures, viral quantification by TCID50; assay type: cell-based
Procedure: To study the effect of a selective EGFR inhibitor on RSV infection, viral quantification by tissue culture-infective dose (TCID50)/100 μL in epithelial HeLa cell cultures treated with or without the selective EGFR tyrosine kinase inhibitor AG 1478 was used. […] FIG. 4A, RSV alone 10^2.5±1 TCID50 vs RSV plus AG 1478 (10 μM) 0 TCID50; n=2. FIG. 4B, RSV alone 10^4.38±0.1 TCID50 vs RSV plus AG 1478 (1 μM) 0 TCID50; n=2.
FIGS. 4A and 4B. Viral quantification by tissue culture-infective dose (TCID50)/100 μL in epithelial cell cultures treated with or without the selective EGFR inhibitor, AG 1478 [(A) AG1478 (10 μM) in TCID50/100 μL at 2 days ±SEM, (n=2 separate experiments); (B) AG 1478 (1 μM) in TCID50/100 μL at 4 days ±SEM, (n=2 separate experiments).
A similar set of experiments was conducted, to test the effect of Gefitinib (Iressa; ZD 1839; N-(3-chloro-4-fluoro-phenyl)-7-methoxy-6-(3-morpholin-4-ylpropoxy)quinazolin-4-amine) on RSV infection. Gefitinib (1 and 10 μM) suppressed RSV virus infection. The data are shown in FIG. 5 (RSV alone 10^1.5 TCID50 (first column), RSV plus Gefitinib (1 μM) 0 TCID50 (second column), and RSV plus Gefitinib (10 μM) 0 TCID50 (third column); n=1).
FIG. 5. Viral quantification by tissue culture-infective dose (TCID50)/100 μL at 2 days in epithelial cell cultures treated with or without the selective EGFR inhibitor, Gefitinib. RSV alone (first column), RSV plus Gefitinib (1 μM, second column), and RSV plus Gefitinib (10 μM, third column); n=1.

| SMILES | cells staining positive for Influenza (Influenza A/H1N1/PR8) [cells] | Rhinovirus infection by plaque assay (Rhinovirus 16 [1]) | percent infected cells (Rhinovirus 16 [2]; 5 μM) [%] | percent infected cells (Rhinovirus 16 [2]; 10 μM) [%] | RSV tissue culture-infective dose (TCID50) ([3]; 1 μM, at 4 days, HeLa, RSV alone 10^4.38±0.1, n=2) [TCID50/100 μL] | RSV tissue culture-infective dose (TCID50) ([3]; 10 μM, at 2 days, HeLa) [TCID50/100 μL] | RSV tissue culture-infective dose (TCID50) ([3]; 1 μM, at 2 days, RSV alone 10^1.5, n=1) [TCID50/100 μL] |
| --- | --- | --- | --- | --- | --- | --- | --- |
| COc1cc2ncnc(Nc3cccc(Cl)c3)c2cc1OC [AG 1478, 4-(3-chlorophenylamino)-6,7-dimethoxyquinazoline] | 94±49 | suppress rhinovirus infection | 13 | 9 | 0 | 0 | – |
| COc1cc2ncnc(Nc3ccc(F)c(Cl)c3)c2cc1OCCCN1CCOCC1 [Gefitinib, N-(3-chloro-4-fluoro-phenyl)-7-methoxy-6-(3-morpholin-4-ylpropoxy)quinazolin-4-amine] | – | – | – | – | – | 0 | 0 |
